Data on 2 molecules can be found in article PMC8145107 (Pharmaceutics, 2021).

“And” between values parts separate entries of the source, which are not always exact repeats. Equal values may be shown once.

A word on the IC50: it is the point on the concentration scale where inhibition reaches its midpoint. One may read the solubility (kinetic) as solubility judged after dilution from a stock solution rather than from solid. By logP is commonly meant a log measure of how a compound divides between an organic and an aqueous phase. The LD50 is the dose expected to kill half of the subjects tested.

Data set [1] has as its system L929: NCTC clone 929, mouse fibroblast cell line. Put plainly: Cytotoxicity in normal mammalian cells (L929). In kind it is cell-based. The note with it: L929, 24 h, 0.01-100 μM, read-out: IC50 of compounds in various normal mammalian cells.
Data set [2] has as its system VERO: African green monkey kidney cell line. Put plainly: Cytotoxicity in normal mammalian cells (VERO). In kind it is cell-based. The note with it: Chlorocebus sabaeus, 24 h, 0.01-100 μM, read-out: IC50 of compounds in various normal mammalian cells.
Data set [3] is described as follows: Kinetic solubility by nephelometry. The note with it: aqueous buffer, kinetic from dmso stock; pH 7, nephelometry. In kind it is physicochemical.
Description: (§3) Permeability was evaluated with a parallel artificial membrane permeability (PAMPA) assay using an artificially generated lipid-infused membrane.
Data set [4] in a line: Log P by pH-metric method. In kind it is physicochemical.
Data set [5] in a line: Liver microsomal phase I stability assay (human). In kind it is in vitro ADME. The following applies: human liver microsomes. On the technique in general: Microsomes from liver hold many membrane-bound enzymes, among them those of drug oxidation.
Data set [6] can be described thus: In vitro human plasma stability. In kind it is in vitro ADME. The note with it: for Half-life predicted from in vitro plasma stability: human plasma.
Description: as §3
A further data set deals with CYP450 2C19 (Homo sapiens, UniProt P33261). Put plainly: CYP450 enzyme inhibition, 2C19. In kind it is in vitro ADME. The note with it: compound 0.05~50 μM; read-out: IC50 against CYP450 isotype 2C19.
Data set [7] can be described thus: Single-dose IV toxicity in ICR mice. In kind it is in vivo, mouse. The following applies: male, mouse, in vivo, not achieved by the maximum dose. An excerpt: (§1) Male Sprague–Dawley rats (7-week-old) and male Institute of Cancer Research (ICR) mice (5-week-old) were purchased from Orient Bio (Seongnam, Korea) and Samtako Bio (Osan, Korea), respectively. The experimental animals were housed under conventional conditions and fasted overnight before surgery for catheterization. All procedures for animal experiments were in accordance with the guidelines by the Ewha Woman’s University Institutional Animal Care and Use Committee (IACUC, 15-049 and 16-062), Korea.
(§2) For single-dose toxicity study of each drug, ICR mice were divided into 6 groups of control (0.9% normal saline), vehicle, and four dosages of each inhibitor (n = 4 mice per group). Both inhibitors dissolved in the same solvent system as the pharmacokinetic study were administered to the mice by caudal vein injection at doses of 2.5, 7.5, 15 and 30 mg/kg. After a single administration, all mice were observed daily for general conditions including behavior, hair, eyes, and nose. In addition, body weight was measured on days 0, 3, 7, and 14 following IV administration.

The next data set has as its system ICR mice. Put plainly: Single-dose IV toxicity in ICR mice. The note with it: 14 days, n = 4. In kind it is in vivo, mouse.
Text: as §1, §2

Data set [8] in a line: Stability tests of the analytes (HPLC method validation, rat plasma). In kind it is physicochemical. The note with it: for Stability of standard stock solution: 1 mg/mL. How it is done: pounds. The analytical method of the analytes was validated by FDA Bioanalytical Method Validation Guidance for Industry. The chromatogram of the rat plasma spiked with J2 and SW15 (IS) or NA49 and NA27 was compared with that of the blank rat plasma in order to confirm the specificity of the analytical method. The calibration curves of J2 and NA49 in rat plasma was built for nine concentration levels in the range of 0.025–10 µg/mL. The sensitivity of detection was evaluated by the lower limit of quantification […]
than the baseline noise. The intra-day precision and accuracy were estimated by analyzing five sets of four quality control (QC) samples (0.025, 0.05, 0.5 and 5 µg/mL) in the same day. The inter-day precision and accuracy were evaluated by analyzing a set of four QC samples on five different days. The precision was expressed as a coefficient of variation (CV%) by calculating the ratio of the standard deviation to the mean measured drug con-centration. The accuracy (%) was calculated by dividing a mean measured drug concen-tration by the theoretical drug concentration. The recovery of the analytes from the plasma samples was evaluated at low and high concentrations (0.05 and 5 µg/mL, respectively) by comparing the peak areas of the analytes after extraction to those before extraction. […]
The short-term stability tests were conducted at room temperature for 4 h for J2 and 6 h for […], while the long-term stability tests were performed at −20°C and −70°C for 2 weeks and 4 weeks, respectively. The stability of the analytes following three freeze-thaw cycles, the post-preparative stability and the stock solution stability were also exam-ined. Each blood sample collected from the experimental animals was transferred into an […]

The target of the next data set is T1, CYP1A2 (Homo sapiens, UniProt P05177).
T1 sequence (P05177 1-516): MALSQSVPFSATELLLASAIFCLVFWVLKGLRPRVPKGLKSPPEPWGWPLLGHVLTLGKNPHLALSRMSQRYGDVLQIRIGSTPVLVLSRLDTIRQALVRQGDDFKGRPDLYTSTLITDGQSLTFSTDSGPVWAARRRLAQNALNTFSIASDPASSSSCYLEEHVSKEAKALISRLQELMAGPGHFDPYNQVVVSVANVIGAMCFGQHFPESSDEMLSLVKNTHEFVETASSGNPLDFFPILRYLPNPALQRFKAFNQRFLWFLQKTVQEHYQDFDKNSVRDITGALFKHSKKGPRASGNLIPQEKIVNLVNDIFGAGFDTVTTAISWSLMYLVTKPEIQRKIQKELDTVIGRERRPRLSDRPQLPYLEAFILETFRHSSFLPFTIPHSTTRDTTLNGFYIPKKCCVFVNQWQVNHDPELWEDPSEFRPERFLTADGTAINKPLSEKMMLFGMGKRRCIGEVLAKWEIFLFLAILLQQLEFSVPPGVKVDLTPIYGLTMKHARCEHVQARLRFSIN
Put plainly: biochemical.

CYP450 2C19, sequence (P33261 whole entry): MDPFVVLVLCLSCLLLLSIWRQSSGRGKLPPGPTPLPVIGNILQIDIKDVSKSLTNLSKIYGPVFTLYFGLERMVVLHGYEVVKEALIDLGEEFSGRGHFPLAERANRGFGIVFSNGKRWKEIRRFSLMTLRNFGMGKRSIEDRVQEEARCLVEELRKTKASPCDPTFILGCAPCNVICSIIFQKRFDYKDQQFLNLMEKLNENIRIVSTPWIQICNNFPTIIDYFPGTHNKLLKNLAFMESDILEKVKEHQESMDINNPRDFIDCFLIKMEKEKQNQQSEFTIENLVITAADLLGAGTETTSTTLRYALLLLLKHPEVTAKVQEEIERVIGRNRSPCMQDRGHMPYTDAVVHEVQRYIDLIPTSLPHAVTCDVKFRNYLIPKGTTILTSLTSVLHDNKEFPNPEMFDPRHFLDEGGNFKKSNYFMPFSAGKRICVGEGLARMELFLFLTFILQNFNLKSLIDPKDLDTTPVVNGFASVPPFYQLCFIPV
Description for CYP450 2C19: as §3

Consider `Cc1cc(=O)c2c(O)cc(OCC3CS3)cc2o1` (stereo not drawn) [J2], for which the half-maximal inhibitory concentration (IC50) in [1] was greater than 100 µM; in [2], 91.8 µM; on CYP450 2C19, greater than 50 µM; on CYP1A2 it was 0.1 µM. In addition, the kinetic solubility in data set [3] is 73.2 µM and 19.5 µg/mL. The molecule also had a log partition coefficient (logP) in data set [4] of 2.78. Further, the “In vitro Metabolic Stability (% of remaining after 30 min)” value in [5] is on record as 47.8 ± 4.50%. Besides, the “Half-life predicted from in vitro plasma stability” value in data set [6] is recorded as “about 3 h”. Besides, the “In vitro Human Plasma Stability at 37 °C (% of remaining after 1 h)” value in [6] (treated with 0.5 μg/mL) was 76.2% and 76.2 ± 0.72%; in data set [6] (treated with 5 μg/mL), 82.7% and 82.7 ± 0.73%. In data set [7], this molecule yielded a 50% lethal dose (LD50) at 14 days greater than 30 mg/kg. Also, the “Survival Rate (%)” value with ICR mice (2.5 mg/kg), in the data set with ICR mice (7.5 mg/kg), with ICR mice (15 mg/kg) and with ICR mice (30 mg/kg) was 100% throughout. Also, the “Stability of post-preparative sample” value in data set [8] is given as 102.2–103.4%. The “Stability of standard stock solution” value in [8] is reported as 113.2%. Moreover, the “Stability after three freeze–thaw cycles, mean” value in data set [8] (low concentration (0.05 µg/mL)) is on record as 116.6%. Also, the “Stability at −70°C for 4 weeks, mean” value in data set [8] (low concentration (0.05 µg/mL)) came out at 115.2%.

With `COc1ccc(-c2coc3cc(OCC4CS4)ccc3c2=O)c(OC)c1` (stereo not drawn) [NA49], the IC50 is 91.9 µM in data set [1], 83.6 µM in data set [2], greater than 50 µM at CYP450 2C19 and greater than 50 µM against CYP1A2. Moreover, the kinetic solubility in data set [3] was 90.2 µM and 33.4 µg/mL. The same molecule gave a logP in data set [4] of 3.04. In addition, in data set [5], the “In vitro Metabolic Stability (% of remaining after 30 min)” value turned out to be 24.9 ± 0.77%. Moreover, in [6], the “Half-life predicted from in vitro plasma stability” value is recorded as greater than 6 h. Besides, the “In vitro Human Plasma Stability at 37 °C (% of remaining after 1 h)” value in [6] (treated with 0.5 μg/mL) is 146.6% and 146.6 ± 0.01%; in data set [6] (treated with 5 μg/mL) it was 101.4% and 101.4 ± 0.13%. The median lethal dose (LD50) at 14 days in [7] was greater than 30 mg/kg. The “Survival Rate (%)” value in the data set on ICR mice (2.5 mg/kg) came to 100%; in the data set on ICR mice (7.5 mg/kg), 100%; in the data set on ICR mice (15 mg/kg) it was 100%; with ICR mice (30 mg/kg), 75%. Moreover, the “Stability of post-preparative sample” value in data set [8] was 96.9–102.4%. Also, in [8], the “Stability of standard stock solution” value was 98.7%.
